Consider one compound from article PMC4979471 (Cell Death Discovery, 2015).

Structures are written as SMILES. Read-outs that look alike come from different tables or passages of the source.

Holding throughout (assay): Kinase selectivity, P33-radiolabeled assay
Assay type in all cases: biochemical

In one test the target is T1, CK1g1 (Homo sapiens, UniProt Q9HCP0).
T1 construct: purchased Reaction Biology Corp
The conditions noted are these: 10 μM ATP. The method, then:
(§1) The compound was tested at a single dose in duplicate at 10 μM. Reactions were carried out at 10 μM ATP. Data are reported as % enzyme activity (relative to DMSO controls). The full data set is shown in the Supplementary Table I.

The next test deals with T2, DYRK2 (Homo sapiens, UniProt Q92630).
T2 construct: purchased Reaction Biology Corp
T2 sequence (Q92630 1-601): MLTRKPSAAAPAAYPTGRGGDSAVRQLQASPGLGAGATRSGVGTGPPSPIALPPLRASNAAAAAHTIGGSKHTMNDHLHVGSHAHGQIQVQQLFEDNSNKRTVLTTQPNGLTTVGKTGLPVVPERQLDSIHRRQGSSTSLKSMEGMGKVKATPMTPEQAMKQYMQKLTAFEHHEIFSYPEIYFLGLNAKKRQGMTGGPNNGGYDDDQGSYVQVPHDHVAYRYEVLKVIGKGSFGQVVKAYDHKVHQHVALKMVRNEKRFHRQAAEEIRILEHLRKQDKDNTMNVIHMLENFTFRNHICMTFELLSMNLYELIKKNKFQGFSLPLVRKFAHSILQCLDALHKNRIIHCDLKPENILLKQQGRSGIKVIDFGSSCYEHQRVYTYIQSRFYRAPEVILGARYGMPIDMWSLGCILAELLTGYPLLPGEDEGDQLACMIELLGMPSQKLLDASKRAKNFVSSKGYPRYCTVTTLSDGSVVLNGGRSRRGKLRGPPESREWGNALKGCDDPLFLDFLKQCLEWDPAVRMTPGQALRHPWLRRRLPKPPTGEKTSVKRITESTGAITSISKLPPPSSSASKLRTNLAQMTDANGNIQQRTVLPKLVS
The settings on record: 10 μM ATP. The method, then:
as §1

In another test the target is T3, FER (Homo sapiens, UniProt P16591).
T3 construct: purchased Reaction Biology Corp
The conditions noted are these: 10 μM ATP. The method, then: as §1

The next test has as its target T4, FLT4/VEGFR3 (Homo sapiens, UniProt P35916).
T4 construct: purchased Reaction Biology Corp
The conditions noted are these: 10 μM ATP. The method, then: as §1

The target in a further test is T5, IGF1R (Homo sapiens, UniProt P08069).
T5 construct: purchased Reaction Biology Corp
The method, then:
as §1

The target of the next test is T6, IKKb/IKBKB (Homo sapiens, UniProt O14920).
T6 construct: purchased Reaction Biology Corp
T6 sequence (O14920 1-756): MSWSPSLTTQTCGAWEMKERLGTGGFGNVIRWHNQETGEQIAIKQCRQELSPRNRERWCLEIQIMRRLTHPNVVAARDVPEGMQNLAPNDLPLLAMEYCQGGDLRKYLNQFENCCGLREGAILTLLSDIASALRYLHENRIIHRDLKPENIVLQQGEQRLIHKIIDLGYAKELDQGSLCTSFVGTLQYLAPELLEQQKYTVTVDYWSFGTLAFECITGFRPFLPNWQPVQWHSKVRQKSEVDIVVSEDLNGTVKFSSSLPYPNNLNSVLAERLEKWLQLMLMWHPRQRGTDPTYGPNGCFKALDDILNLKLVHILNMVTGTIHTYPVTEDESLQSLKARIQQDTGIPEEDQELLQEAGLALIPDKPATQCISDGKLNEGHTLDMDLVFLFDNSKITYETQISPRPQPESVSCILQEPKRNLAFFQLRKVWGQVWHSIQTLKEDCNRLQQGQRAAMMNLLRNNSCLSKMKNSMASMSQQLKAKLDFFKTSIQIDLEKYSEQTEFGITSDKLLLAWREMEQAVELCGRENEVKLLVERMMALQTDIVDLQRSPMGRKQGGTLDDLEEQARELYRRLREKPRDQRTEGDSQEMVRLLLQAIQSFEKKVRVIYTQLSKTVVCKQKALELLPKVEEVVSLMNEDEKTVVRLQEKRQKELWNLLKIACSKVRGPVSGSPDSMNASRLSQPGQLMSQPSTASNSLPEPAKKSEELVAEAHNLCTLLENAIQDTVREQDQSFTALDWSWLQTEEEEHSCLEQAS
The conditions noted are these: 10 μM ATP. The method, then: as §1

Another test has as its target T7, MKK6 (Homo sapiens, UniProt P52564).
T7 construct: purchased Reaction Biology Corp
T7 sequence (P52564 1-334): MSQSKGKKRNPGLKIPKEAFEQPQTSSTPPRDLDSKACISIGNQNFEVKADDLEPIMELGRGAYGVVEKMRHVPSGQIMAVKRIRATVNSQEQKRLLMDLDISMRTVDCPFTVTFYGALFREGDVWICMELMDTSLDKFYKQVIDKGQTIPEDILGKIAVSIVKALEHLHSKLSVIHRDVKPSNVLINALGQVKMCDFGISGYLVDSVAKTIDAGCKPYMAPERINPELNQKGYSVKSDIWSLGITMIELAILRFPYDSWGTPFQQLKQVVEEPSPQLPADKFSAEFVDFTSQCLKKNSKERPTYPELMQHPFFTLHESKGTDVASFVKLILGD
The settings on record: 10 μM ATP. The method, then: as §1

A further test addresses T8, MLK3/MAP3K11 (Homo sapiens, UniProt Q16584).
T8 construct: purchased Reaction Biology Corp
The settings on record: 10 μM ATP. The method, then:
as §1

Where [1] appears, read: read-out: % Enzyme Activity (relative to DMSO controls) AVG.
The mark [2] stands for this setting: read-out: % Enzyme Activity (relative to DMSO controls) Data 1.
The mark [3] stands for this setting: read-out: % Enzyme Activity (relative to DMSO controls) Data 2.

T3 sequence (P16591 whole entry): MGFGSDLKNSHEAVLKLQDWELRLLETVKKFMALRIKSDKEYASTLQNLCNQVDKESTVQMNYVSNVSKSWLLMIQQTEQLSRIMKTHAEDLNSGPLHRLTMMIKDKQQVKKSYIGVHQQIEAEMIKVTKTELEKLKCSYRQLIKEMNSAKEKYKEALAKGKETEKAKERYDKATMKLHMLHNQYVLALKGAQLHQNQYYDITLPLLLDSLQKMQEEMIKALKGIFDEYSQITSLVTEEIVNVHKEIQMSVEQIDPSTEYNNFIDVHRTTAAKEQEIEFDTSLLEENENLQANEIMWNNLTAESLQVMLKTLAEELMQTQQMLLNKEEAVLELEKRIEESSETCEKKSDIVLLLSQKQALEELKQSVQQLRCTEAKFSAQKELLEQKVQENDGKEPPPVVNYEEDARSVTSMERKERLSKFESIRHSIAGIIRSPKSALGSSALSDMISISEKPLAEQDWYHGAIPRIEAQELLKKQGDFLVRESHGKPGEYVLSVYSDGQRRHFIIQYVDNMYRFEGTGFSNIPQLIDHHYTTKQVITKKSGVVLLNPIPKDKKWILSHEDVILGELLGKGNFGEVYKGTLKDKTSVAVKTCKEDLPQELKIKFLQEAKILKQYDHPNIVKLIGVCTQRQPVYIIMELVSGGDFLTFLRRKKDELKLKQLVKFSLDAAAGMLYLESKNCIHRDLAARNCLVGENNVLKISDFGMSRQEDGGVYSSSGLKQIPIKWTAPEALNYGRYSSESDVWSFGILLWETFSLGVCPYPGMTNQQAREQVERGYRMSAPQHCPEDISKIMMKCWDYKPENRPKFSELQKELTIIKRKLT
T5 sequence (P08069 31-1367): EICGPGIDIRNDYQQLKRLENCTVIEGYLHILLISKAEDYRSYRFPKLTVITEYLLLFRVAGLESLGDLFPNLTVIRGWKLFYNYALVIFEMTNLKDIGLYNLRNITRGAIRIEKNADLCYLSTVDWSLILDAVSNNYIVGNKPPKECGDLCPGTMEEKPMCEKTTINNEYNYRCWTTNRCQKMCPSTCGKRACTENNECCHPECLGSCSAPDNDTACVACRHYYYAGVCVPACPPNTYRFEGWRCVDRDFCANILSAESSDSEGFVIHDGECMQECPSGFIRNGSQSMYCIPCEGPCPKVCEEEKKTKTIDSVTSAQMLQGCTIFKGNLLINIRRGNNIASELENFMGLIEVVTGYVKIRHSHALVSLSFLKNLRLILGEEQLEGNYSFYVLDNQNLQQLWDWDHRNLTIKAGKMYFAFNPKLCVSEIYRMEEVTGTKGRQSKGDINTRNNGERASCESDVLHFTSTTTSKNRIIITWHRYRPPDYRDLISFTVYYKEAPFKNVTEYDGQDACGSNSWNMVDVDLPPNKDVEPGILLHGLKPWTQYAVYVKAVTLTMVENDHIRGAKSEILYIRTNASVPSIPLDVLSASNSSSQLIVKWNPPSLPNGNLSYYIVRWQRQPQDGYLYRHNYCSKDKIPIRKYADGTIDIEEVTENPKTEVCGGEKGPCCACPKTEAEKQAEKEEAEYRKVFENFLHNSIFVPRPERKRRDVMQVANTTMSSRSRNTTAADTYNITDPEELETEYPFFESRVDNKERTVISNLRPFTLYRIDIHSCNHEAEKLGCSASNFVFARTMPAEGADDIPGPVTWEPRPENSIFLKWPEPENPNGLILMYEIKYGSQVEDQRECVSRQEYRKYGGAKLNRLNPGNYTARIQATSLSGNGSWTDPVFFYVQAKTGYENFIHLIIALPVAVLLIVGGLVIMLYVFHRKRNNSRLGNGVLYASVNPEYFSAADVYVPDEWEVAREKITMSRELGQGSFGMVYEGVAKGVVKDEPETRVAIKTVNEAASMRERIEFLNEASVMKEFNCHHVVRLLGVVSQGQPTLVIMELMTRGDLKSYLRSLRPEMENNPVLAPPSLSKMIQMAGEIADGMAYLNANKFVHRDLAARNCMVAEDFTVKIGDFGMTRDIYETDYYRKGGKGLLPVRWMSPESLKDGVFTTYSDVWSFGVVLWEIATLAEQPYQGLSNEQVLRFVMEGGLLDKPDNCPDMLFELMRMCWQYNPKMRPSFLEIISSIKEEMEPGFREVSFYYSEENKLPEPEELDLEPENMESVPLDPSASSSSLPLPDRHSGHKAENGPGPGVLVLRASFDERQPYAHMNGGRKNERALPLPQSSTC
T1 sequence (Q9HCP0 whole entry): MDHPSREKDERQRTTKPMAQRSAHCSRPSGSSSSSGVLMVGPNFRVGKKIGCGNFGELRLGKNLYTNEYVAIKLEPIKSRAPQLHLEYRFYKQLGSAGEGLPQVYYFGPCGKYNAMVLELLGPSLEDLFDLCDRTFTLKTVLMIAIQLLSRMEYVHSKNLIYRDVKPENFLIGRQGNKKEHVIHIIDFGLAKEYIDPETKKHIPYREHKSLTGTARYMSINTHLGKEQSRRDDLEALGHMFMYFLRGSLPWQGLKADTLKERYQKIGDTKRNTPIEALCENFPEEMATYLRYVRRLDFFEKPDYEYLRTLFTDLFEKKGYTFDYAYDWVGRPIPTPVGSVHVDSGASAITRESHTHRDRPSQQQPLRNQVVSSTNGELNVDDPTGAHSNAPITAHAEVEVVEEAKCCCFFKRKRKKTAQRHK
T8 sequence (Q16584 whole entry): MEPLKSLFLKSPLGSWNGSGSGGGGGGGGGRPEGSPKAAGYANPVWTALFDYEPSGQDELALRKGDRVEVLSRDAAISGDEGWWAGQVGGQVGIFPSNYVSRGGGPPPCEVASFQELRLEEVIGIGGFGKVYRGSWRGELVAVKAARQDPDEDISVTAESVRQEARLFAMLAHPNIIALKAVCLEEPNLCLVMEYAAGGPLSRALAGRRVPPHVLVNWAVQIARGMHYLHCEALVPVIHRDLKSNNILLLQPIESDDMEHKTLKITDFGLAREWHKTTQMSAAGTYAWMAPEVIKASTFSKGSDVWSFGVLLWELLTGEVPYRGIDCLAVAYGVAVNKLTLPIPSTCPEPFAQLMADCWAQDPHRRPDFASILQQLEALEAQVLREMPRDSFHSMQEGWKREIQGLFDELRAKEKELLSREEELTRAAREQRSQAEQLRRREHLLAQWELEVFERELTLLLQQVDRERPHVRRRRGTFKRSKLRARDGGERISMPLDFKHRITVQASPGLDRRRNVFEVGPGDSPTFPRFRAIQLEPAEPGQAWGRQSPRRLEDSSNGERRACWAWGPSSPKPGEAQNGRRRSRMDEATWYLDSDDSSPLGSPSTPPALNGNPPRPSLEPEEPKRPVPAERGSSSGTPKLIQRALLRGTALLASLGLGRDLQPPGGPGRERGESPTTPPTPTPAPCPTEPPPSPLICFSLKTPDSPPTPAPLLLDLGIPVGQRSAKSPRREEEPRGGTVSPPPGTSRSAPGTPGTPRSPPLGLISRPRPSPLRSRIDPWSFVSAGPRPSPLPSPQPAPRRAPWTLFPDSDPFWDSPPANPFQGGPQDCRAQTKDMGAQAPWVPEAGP
T4 sequence (P35916 25-1363): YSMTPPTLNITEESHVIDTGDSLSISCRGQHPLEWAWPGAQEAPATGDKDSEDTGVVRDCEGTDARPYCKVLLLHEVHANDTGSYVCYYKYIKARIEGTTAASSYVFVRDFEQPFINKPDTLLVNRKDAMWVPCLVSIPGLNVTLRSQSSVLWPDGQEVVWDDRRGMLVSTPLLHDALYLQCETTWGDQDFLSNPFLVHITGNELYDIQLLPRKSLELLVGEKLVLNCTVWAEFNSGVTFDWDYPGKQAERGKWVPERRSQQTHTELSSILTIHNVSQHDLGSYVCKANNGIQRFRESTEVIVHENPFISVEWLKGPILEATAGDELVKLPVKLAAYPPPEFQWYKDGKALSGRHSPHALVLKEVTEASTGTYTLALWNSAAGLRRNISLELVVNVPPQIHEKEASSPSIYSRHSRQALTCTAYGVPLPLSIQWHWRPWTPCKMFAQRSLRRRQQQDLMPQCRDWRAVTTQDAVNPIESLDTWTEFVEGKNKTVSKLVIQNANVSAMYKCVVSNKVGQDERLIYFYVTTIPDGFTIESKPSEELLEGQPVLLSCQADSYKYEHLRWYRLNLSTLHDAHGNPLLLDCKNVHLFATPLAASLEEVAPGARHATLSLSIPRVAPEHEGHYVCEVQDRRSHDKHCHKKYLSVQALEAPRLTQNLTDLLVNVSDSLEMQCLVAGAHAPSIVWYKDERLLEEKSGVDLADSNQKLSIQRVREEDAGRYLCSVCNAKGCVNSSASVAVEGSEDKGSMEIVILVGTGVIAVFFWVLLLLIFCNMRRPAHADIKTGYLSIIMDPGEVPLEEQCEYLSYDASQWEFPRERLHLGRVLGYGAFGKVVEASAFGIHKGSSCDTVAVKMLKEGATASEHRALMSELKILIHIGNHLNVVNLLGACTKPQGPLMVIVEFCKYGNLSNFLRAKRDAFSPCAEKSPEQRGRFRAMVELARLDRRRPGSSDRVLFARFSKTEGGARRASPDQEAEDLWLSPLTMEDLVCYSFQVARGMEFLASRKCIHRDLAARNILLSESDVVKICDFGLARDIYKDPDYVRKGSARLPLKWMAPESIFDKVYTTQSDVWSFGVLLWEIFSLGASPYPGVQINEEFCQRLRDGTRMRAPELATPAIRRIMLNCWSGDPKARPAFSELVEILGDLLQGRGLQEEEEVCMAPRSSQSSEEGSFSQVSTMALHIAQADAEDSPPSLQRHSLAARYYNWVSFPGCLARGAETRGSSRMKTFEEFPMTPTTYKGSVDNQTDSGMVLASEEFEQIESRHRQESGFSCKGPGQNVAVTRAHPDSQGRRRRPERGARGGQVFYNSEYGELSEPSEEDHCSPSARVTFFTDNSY

Consider `CC(C)(C)C(=O)N1N=CC[C@H]1c1ccccc1` [GSK′963], for which the remaining activity at 10 µM was 108% at CK1g1 (setting [1]); 111% on CK1g1 (setting [2]); 105% on CK1g1 (setting [3]); 97.7% on DYRK2 (setting [1]); 96.9% on DYRK2 (setting [2]); 98.4% at DYRK2 (setting [3]). In addition, the remaining activity at 10 µM on FER (setting [1]) came out at 107%; at FER (setting [2]) it was 109%; on FER (setting [3]), 105%; at FLT4/VEGFR3 (setting [1]), 103%; on FLT4/VEGFR3 (setting [2]), 105%; on FLT4/VEGFR3 (setting [3]), 102%. For the same compound, the remaining activity at 10 µM on IGF1R (10 uM, 10 μM ATP, read-out: % Enzyme Activity (relative to DMSO controls) AVG) came out at 103%; on IGF1R (10 uM, 10 μM ATP, read-out: % Enzyme Activity (relative to DMSO controls) Data 2) it was 104%; at IGF1R (setting [2]), 101%; at IKKb/IKBKB (setting [1]), 111%; on IKKb/IKBKB (setting [2]), 110%; on IKKb/IKBKB (setting [3]), 112%. Besides, the remaining activity at 10 µM is 99.7% on MKK6 (setting [1]); 101% at MKK6 (setting [2]); 98.6% on MKK6 (setting [3]); 95% on MLK3/MAP3K11 (setting [1]); 96% on MLK3/MAP3K11 (setting [2]); 94% on MLK3/MAP3K11 (setting [3]).
